Results reported in US20240158412A1 (Faxian Therapeutics, LLC, priority 2021, published 2024).

The compounds below were run against USP7 (Homo sapiens, UniProt Q93009) (assay: biochemical).
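Further: fluorescence intensity readout of USP7 enzymatic activity, reaction incubated 90 min at room temperature.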

USP7, sequence (Q93009 whole entry): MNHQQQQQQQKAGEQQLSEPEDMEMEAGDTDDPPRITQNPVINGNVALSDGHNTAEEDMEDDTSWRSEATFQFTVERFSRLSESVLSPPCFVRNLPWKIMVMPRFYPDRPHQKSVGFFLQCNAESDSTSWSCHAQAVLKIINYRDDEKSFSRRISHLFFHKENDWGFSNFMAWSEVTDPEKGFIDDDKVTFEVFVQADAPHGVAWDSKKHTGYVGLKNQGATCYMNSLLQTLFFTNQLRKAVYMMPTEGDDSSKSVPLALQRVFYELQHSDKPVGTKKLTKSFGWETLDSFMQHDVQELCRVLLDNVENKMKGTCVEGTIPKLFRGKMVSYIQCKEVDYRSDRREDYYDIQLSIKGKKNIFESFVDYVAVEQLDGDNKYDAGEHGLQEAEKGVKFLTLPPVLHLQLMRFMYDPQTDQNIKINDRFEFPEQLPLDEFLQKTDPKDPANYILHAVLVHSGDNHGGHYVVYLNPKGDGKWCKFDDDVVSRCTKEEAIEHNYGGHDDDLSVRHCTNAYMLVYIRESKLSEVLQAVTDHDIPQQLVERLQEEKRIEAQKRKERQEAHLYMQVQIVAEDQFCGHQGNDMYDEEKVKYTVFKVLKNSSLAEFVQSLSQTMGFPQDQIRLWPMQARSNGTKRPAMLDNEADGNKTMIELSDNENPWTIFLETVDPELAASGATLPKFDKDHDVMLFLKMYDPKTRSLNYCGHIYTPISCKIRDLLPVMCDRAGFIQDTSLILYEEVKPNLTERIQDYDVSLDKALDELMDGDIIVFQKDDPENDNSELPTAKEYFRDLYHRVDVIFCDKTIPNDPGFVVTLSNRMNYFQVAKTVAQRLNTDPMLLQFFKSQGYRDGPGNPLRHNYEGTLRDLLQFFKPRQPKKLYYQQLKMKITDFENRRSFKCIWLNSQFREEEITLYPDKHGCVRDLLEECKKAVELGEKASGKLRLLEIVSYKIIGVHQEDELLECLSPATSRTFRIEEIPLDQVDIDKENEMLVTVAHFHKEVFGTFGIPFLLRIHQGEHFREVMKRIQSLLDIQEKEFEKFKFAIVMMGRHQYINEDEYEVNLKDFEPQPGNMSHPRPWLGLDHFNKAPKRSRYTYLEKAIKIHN

Compound | IC50
N[C@@H]1CCN(C2CCOc3cc(Cl)cc(-c4ccnc5cc(CN6C(=O)CCC6=O)sc45)c32)C1 (stereo in doubt) [Example 230a, 1-((7-((S)-4-((R)-3-aminopyrrolidin-1-yl)-7-chlorochroman-5-yl)thieno[3,2-b]pyridin-2-yl)methyl)pyrrolidine-2,5-dione] | 10 to 100 nM
N[C@@H]1CCN(C2CCOc3cc(Cl)cc(-c4ccnc5cc(CN6C(=O)CCC6=O)sc45)c32)C1 (stereo in doubt) [Example 230b, 1-((7-((R)-4-((R)-3-aminopyrrolidin-1-yl)-7-chlorochroman-5-yl)thieno[3,2-b]pyridin-2-yl)methyl)pyrrolidine-2,5-dione] | > 1000 nM
CN1CC(N2CCCc3cc(Cl)cc(-c4ccnc5cc(CN6C(=O)CCC6=O)sc45)c32)C1 [Example 2, 1-((7-(6-chloro-1-(1-methylazetidin-3-yl)-1,2,3,4-tetrahydroquinolin-8-yl)thieno[3,2-b]pyridin-2-yl)methyl)pyrrolidine-2,5-dione] | 10 to 100 nM
O=C1CCC(=O)N1Cc1cc2nccc(-c3cc(Cl)cc4c3N(C3CN(C5CCC5)C3)CCC4)c2s1 [Example 3, 1-((7-(6-chloro-1-(1-cyclobutylazetidin-3-yl)-1,2,3,4-tetrahydroquinolin-8-yl)thieno[3,2-b]pyridin-2-yl)methyl)pyrrolidine-2,5-dione] | 10 to 100 nM
CCN1CC(N2CCCc3cc(Cl)cc(-c4ccnc5cc(CN6C(=O)CCC6=O)sc45)c32)C1 [Example 4, 1-((7-(6-chloro-1-(1-ethylazetidin-3-yl)-1,2,3,4-tetrahydroquinolin-8-yl)thieno[3,2-b]pyridin-2-yl)methyl)pyrrolidine-2,5-dione] | 10 to 100 nM
O=C1CCC(=O)N1Cc1cc2nccc(-c3cc(Cl)cc4c3N(C3CN(C5CC5)C3)CCC4)c2s1 [Example 5, 1-((7-(6-chloro-1-(1-cyclopropylazetidin-3-yl)-1,2,3,4-tetrahydroquinolin-8-yl)thieno[3,2-b]pyridin-2-yl)methyl)pyrrolidine-2,5-dione] | 10 to 100 nM
O=C1CCC(=O)N1Cc1cc2nccc(-c3cc(Cl)cc4c3N(C3CN(C5COC5)C3)CCC4)c2s1 [Example 6, 1-((7-(6-chloro-1-(1-(oxetan-3-yl)azetidin-3-yl)-1,2,3,4-tetrahydroquinolin-8-yl)thieno[3,2-b]pyridin-2-yl)methyl)pyrrolidine-2,5-dione] | 10 to 100 nM
CNC(=O)N1CC(N2CCCc3cc(Cl)cc(-c4ccnc5cc(CN6C(=O)CCC6=O)sc45)c32)C1 [Example 7, 3-[6-chloro-8-[2-[(2,5-dioxopyrrolidin-1-yl)methyl]thieno[3,2-b]pyridin-7-yl]-3,4-dihydro-2H-quinolin-1-yl]-N-methyl-azetidine-1-carboxamide] | 101 to 1000 nM
CC(=O)N1CC(N2CCCc3cc(Cl)cc(-c4ccnc5cc(CN6C(=O)CCC6=O)sc45)c32)C1 [Example 8, 1-((7-(1-(1-acetylazetidin-3-yl)-6-chloro-1,2,3,4-tetrahydroquinolin-8-yl)thieno[3,2-b]pyridin-2-yl)methyl)pyrrolidine-2,5-dione] | 101 to 1000 nM
O=C1CCC(=O)N1Cc1cc2nccc(-c3cc(Cl)cc4c3N(C3CN(CCO)C3)CCC4)c2s1 [Example 10, 1-[[7-[6-chloro-1-[1-(2-hydroxyethyl)azetidin-3-yl]-3,4-dihydro-2H-quinolin-8-yl]thieno[3,2-b]pyridin-2-yl]methyl]pyrrolidine-2,5-dione] | 10 to 100 nM
O=C1CCC(=O)N1Cc1cc2nccc(-c3cc(Cl)cc4c3N(C3CN(CC(F)F)C3)CCC4)c2s1 [Example 11, 1-((7-(6-chloro-1-(1-(2,2-difluoroethyl)azetidin-3-yl)-1,2,3,4-tetrahydroquinolin-8-yl)thieno[3,2-b]pyridin-2-yl)methyl)pyrrolidine-2,5-dione] | 101 to 1000 nM
N#CC1(CN2CC(N3CCCc4cc(Cl)cc(-c5ccnc6cc(CN7C(=O)CCC7=O)sc56)c43)C2)CC1 [Example 12, 1-((3-(6-chloro-8-(2-((2,5-dioxopyrrolidin-1-yl)methyl)thieno[3,2-b]pyridin-7-yl)-3,4-dihydroquinolin-1(2H)-yl)azetidin-1-yl)methyl)cyclopropanecarbonitrile] | 101 to 1000 nM
N#Cc1cc2c(c(-c3ccnc4cc(CN5C(=O)CCC5=O)sc34)c1)N(C1CNC1)CCC2 [Example 32, 1-(azetidin-3-yl)-8-[2-[(2,5-dioxopyrrolidin-1-yl)methyl]thieno[3,2-b]pyridin-7-yl]-3,4-dihydro-2H-quinoline-6-carbonitrile] | 10 to 100 nM

Second part, the compound after the results:

IC50 | Compound
10 to 100 nM | O=C1CCC(=O)N1Cc1cc2nccc(-c3cc(Cl)cc4c3N(C3CNC3)CCC4)c2s1 [Example 1, 1-((7-(1-(azetidin-3-yl)-6-chloro-1,2,3,4-tetrahydroquinolin-8-yl)thieno[3,2-b]pyridin-2-yl)methyl)pyrrolidine-2,5-dione]
10 to 100 nM | O=C1C2CC2C(=O)N1Cc1cc2nccc(-c3cc(Cl)cc4c3N(C3CNC3)CCC4)c2s1 (stereo not shown) [Example 13, 3-((7-(1-(azetidin-3-yl)-6-chloro-1,2,3,4-tetrahydroquinolin-8-yl)thieno[3,2-b]pyridin-2-yl)methyl)-3-azabicyclo[3.1.0]hexane-2,4-dione]
10 to 100 nM | CC1(C)C2C(=O)N(Cc3cc4nccc(-c5cc(Cl)cc6c5N(C5CNC5)CCC6)c4s3)C(=O)C21 (stereo not shown) [Example 14, 3-[[7-[1-(azetidin-3-yl)-6-chloro-3,4-dihydro-2H-quinolin-8-yl]thieno[3,2-b]pyridin-2-yl]methyl]-6,6-dimethyl-3-azabicyclo[3.1.0]hexane-2,4-dione]
10 to 100 nM | O=c1cccnn1Cc1cc2nccc(-c3cc(Cl)cc4c3N(C3CNC3)CCC4)c2s1 [Example 16, 2-[[7-[1-(azetidin-3-yl)-6-chloro-3,4-dihydro-2H-quinolin-8-yl]thieno[3,2-b]pyridin-2-yl]methyl]pyridazin-3-one]
10 to 100 nM | Cc1ccc(=O)n(Cc2cc3nccc(-c4cc(Cl)cc5c4N(C4CNC4)CCC5)c3s2)n1 [Example 17, 2-[[7-[1-(azetidin-3-yl)-6-chloro-3,4-dihydro-2H-quinolin-8-yl]thieno[3,2-b]pyridin-2-yl]methyl]-6-methyl-pyridazin-3-one]
10 to 100 nM | Cc1ccnn(Cc2cc3nccc(-c4cc(Cl)cc5c4N(C4CNC4)CCC5)c3s2)c1=O [Example 18, 2-[[7-[1-(azetidin-3-yl)-6-chloro-3,4-dihydro-2H-quinolin-8-yl]thieno[3,2-b]pyridin-2-yl]methyl]-4-methyl-pyridazin-3-one]
> 1000 nM | O=c1c2ccccc2ncn1Cc1cc2nccc(-c3cc(Cl)cc4c3N(C3CNC3)CCC4)c2s1 [Example 19, 3-[[7-[1-(azetidin-3-yl)-6-chloro-3,4-dihydro-2H-quinolin-8-yl]thieno[3,2-b]pyridin-2-yl]methyl]quinazolin-4-one]
101 to 1000 nM | O=c1c2ccccc2cnn1Cc1cc2nccc(-c3cc(Cl)cc4c3N(C3CNC3)CCC4)c2s1 [Example 21, 2-[[7-[1-(azetidin-3-yl)-6-chloro-3,4-dihydro-2H-quinolin-8-yl]thieno[3,2-b]pyridin-2-yl]methyl]phthalazin-1-one]
10 to 100 nM | Cc1cnn(Cc2cc3nccc(-c4cc(Cl)cc5c4N(C4CNC4)CCC5)c3s2)c(=O)c1 [Example 22, 2-[[7-[1-(azetidin-3-yl)-6-chloro-3,4-dihydro-2H-quinolin-8-yl]thieno[3,2-b]pyridin-2-yl]methyl]-5-methyl-pyridazin-3-one]
< 10 nM | O=c1ccn(CC(F)F)c(=O)n1Cc1cc2nccc(-c3cc(Cl)cc4c3N(C3CNC3)CCC4)c2s1 [Example 23, 3-[[7-[1-(azetidin-3-yl)-6-chloro-3,4-dihydro-2H-quinolin-8-yl]thieno[3,2-b]pyridin-2-yl]methyl]-1-(2,2-difluoroethyl)pyrimidine-2,4-dione]
< 10 nM | O=c1ccn(CC(F)(F)F)c(=O)n1Cc1cc2nccc(-c3cc(Cl)cc4c3N(C3CNC3)CCC4)c2s1 [Example 24, 3-[[7-[1-(azetidin-3-yl)-6-chloro-3,4-dihydro-2H-quinolin-8-yl]thieno[3,2-b]pyridin-2-yl]methyl]-1-(2,2,2-trifluoroethyl)pyrimidine-2,4-dione]
10 to 100 nM | O=C1COC(=O)N1Cc1cc2nccc(-c3cc(Cl)cc4c3N(C3CNC3)CCC4)c2s1 [Example 27, 3-[[7-[1-(azetidin-3-yl)-6-chloro-3,4-dihydro-2H-quinolin-8-yl]thieno[3,2-b]pyridin-2-yl]methyl]oxazolidine-2,4-dione]
< 10 nM | O=C1CNCC(=O)N1Cc1cc2nccc(-c3cc(Cl)cc4c3N(C3CNC3)CCC4)c2s1 [Example 28, 1-[[7-[1-(azetidin-3-yl)-6-chloro-3,4-dihydro-2H-quinolin-8-yl]thieno[3,2-b]pyridin-2-yl]methyl]piperazine-2,6-dione]
10 to 100 nM | CC1(CN2CC(=O)N(Cc3cc4nccc(-c5cc(Cl)cc6c5N(C5CNC5)CCC6)c4s3)C(=O)C2)CC1 [Example 29, 1-((7-(1-(azetidin-3-yl)-6-chloro-1,2,3,4-tetrahydroquinolin-8-yl)thieno[3,2-b]pyridin-2-yl)methyl)-4-((1-methylcyclopropyl)methyl)piperazine-2,6-dione]
< 10 nM | COCCn1ccc(=O)n(Cc2cc3nccc(-c4cc(Cl)cc5c4N(C4CNC4)CCC5)c3s2)c1=O [Example 30, 3-[[7-[1-(azetidin-3-yl)-6-chloro-3,4-dihydro-2H-quinolin-8-yl]thieno[3,2-b]pyridin-2-yl]methyl]-1-(2-methoxyethyl)pyrimidine-2,4-dione]
101 to 1000 nM | CN1C(=O)N(Cc2cc3nccc(-c4cc(Cl)cc5c4N(C4CNC4)CCC5)c3s2)C(=O)C12CCC2 [Example 31, 7-((7-(1-(azetidin-3-yl)-6-chloro-1,2,3,4-tetrahydroquinolin-8-yl)thieno[3,2-b]pyridin-2-yl)methyl)-5-methyl-5,7-diazaspiro[3.4]octane-6,8-dione]
10 to 100 nM | Cc1cc2c(c(-c3ccnc4cc(CN5C(=O)CCC5=O)sc34)c1)N(C1CNC1)CCC2 [Example 33, 1-[[7-[1-(azetidin-3-yl)-6-methyl-3,4-dihydro-2H-quinolin-8-yl]thieno[3,2-b]pyridin-2-yl]methyl]pyrrolidine-2,5-dione]
10 to 100 nM | O=c1cc(N2CCOCC2)cnn1Cc1cc2nccc(-c3cc(Cl)cc4c3N(C3CNC3)CCC4)c2s1 [Example 34]
